Source: patent US20140031227A1, “HERBICIDAL COMPOSITIONS COMPRISING 4-AMINO-3-CHLORO-5-FLUORO-6-(4-CHLORO-2-FLUORO-3-METHOXYPHENYL) PYRIDINE-2-CARBOXYLIC ACID OR A DERIVATIVE THEREOF AND GLYPHOSATE OR GLUFOSINATE” (DOW AGROSCIENCES LLC, priority 2012, published 2014)
Counter-ions that a name gives are not always drawn.

Key:
Assay type in all cases: in vivo
[1] = test system: DIGSA (Digitaria sanguinalis (L.) Scop., large crabgrass); experiment: Example IV postemergence foliar-applied mixtures, general weed control, greenhouse: DIGSA
Description: (§1) Seeds or nutlets of the desired test plant species were planted in Sun Gro Metro-Mix® 360 planting mixture, which typically has a pH of 6.0 to 6.8 and an organic matter content of about 30 percent, in plastic pots with a surface area of 84.6 square centimeters (cm^2). […] The plants were grown for 7-31 days (d) in a greenhouse with an approximate 15 hour (h) photoperiod which was maintained at about 23-29° C. during the day and 22-28° C. during the night. Nutrients (Peters Excel® 15-5-15 5-Ca 2-Mg) and water were added on a regular basis and supplemental lighting was provided with overhead metal halide 1000-Watt lamps as necessary. The plants were employed for testing when they reached the first, second, or third true leaf stage.
(§2) Treatments consisted of the acid or the benzyl ester of 4-amino-3-chloro-5-fluoro-6-(4-chloro-2-fluoro-3-methoxy-phenyl)pyridine-2-carboxylic acid (Compound A), each formulated as an SC, and various herbicidal components alone and in combination. Forms of compound A were applied on an acid equivalent basis.
(§3) Other herbicidal components were applied on an acid equivalent or active ingredient basis and included the 5-enolpyruvylshikimate-3-phosphate synthase (EPSPS)-inhibiting herbicide, glyphosate dimethylamine salt, formulated as Durango DMA® and the glutamine synthase (GS)-inhibiting herbicide, glufosinate ammonium, formulated as Ignite® 280.
(§4) For treatments comprised of formulated compounds, measured amounts of compounds were placed individually in 25 mL glass vials and diluted in a volume of 1.25% (v/v) Agri-dex crop oil concentrated to obtain 12× stock solutions. […] Application solutions were prepared by adding an appropriate amount of each stock solution (typically 1 mL) and diluted to the appropriate final concentrations with the addition of 10 mL of an aqueous mixture of 1.25% (v/v) Agri-dex crop oil concentrate so that the final spray solutions contained 1.25% (v/v) Agri-dex crop oil concentrate.
(§5) All stock solutions and applications solutions were visually inspected for compound compatibility prior to application. Compound requirements are based upon a 12 mL application volume at a rate of 187 liters per hectare (L/ha). Formulated compounds were applied to the plant material with an overhead Mandel track sprayer equipped with 8002E nozzles calibrated to deliver 187 L/ha over an application area of 0.503 square meters (m^2) at a spray height of 18 to 20 inches (46 to 50 cm) above the average plant canopy height. Control plants were sprayed in the same manner with the solvent blank.
(§6) The treated plants and control plants were placed in a greenhouse as described above and watered by sub-irrigation to prevent wash-off of the test compounds. After approximately 3 weeks, the condition of the test plants as compared with that of the untreated plants was determined visually and scored on a scale of 0 to 100 percent where 0 corresponds to no injury or growth inhibition and 100 corresponds to complete kill.
(§7) Colby's equation was used to determine the herbicidal effects expected from the mixtures (Colby, S. R. 1967. Calculation of the synergistic and antagonistic response of herbicide combinations. Weeds 15:20-22.) .

[2] = test system: AVEFA (Avena fatua L., wild oat); experiment: Example III postemergence foliar-applied mixtures, row crop weeds (corn, soybean), greenhouse: AVEFA
Description: as §1, with “a soil matrix prepared by mixing a loam or sandy loam soil (e.g., 43 percent silt, 19 percent clay, and 38 percent sand, with” for “Sun Gro Metro-Mix® 360 planting mixture, which typically has”, “about 8.1” for “6.0 to 6.8”, “1.5 percent) and calcareous grit in an 80 to 20 ratio. The soil matrix was contained” for “30 percent,”, “square centimters (cm^2) and a volume of 560 cubic” for “square”, “(cm^3).” for “(cm^2).”
(§8) Treatments consisted of the acid or esters of 4-amino-3-chloro-5-fluoro-6-(4-chloro-2-fluoro-3-methoxy-phenyl)pyridine-2-carboxylic acid (Compound A), each formulated as an
(§9) SC (suspension concentrate), and various herbicidal components alone and in combination. Forms of compound A were applied on an acid equivalent basis.
as §3
(§10) For treatments comprised of formulated compounds, measured amounts of compounds were placed individually in 25 mL glass vials and diluted in a volume of 1.5% (v/v) Agri-dex® crop oil concentrate to obtain 6× stock solutions. […] Application solutions were prepared by adding an appropriate amount of each stock solution (typically 2 mL) and diluted to the appropriate final concentrations with the addition of an aqueous mixture of 1.5% (v/v) crop oil concentrate and water so that the final spray solutions contained 1.25% (v/v) crop oil concentrate.
as §5
(§11) The treated plants and control plants were placed in a greenhouse as described above and watered by sub-irrigation to prevent wash-off of the test compounds. After approximately 2 weeks, the condition of the test plants as compared with that of the untreated plants was determined visually and scored on a scale of 0 to 100 percent where 0 corresponds to no injury or growth inhibition and 100 corresponds to complete kill.
(§12) The following equation was used to calculate the expected activity of mixtures containing two active ingredients, A and B: […]

[3] = test system: SETFA (Setaria faberi Herrm., giant foxtail); experiment: Example IV postemergence foliar-applied mixtures, general weed control, greenhouse: SETFA
Description: as §1, §2, §3, §4, §5, §6, §7

[4] = test system: IPOHE (Ipomoea hederacea Jacq., morning glory, ivyleaf); experiment: Example IV postemergence foliar-applied mixtures, general weed control, greenhouse: IPOHE
Description: as §6, §7
The following equation was used to calculate the expected activity of mixtures containing two active ingredients, A and B:
A=observed efficacy of active ingredient A at the same concentration as used in the mixture.
B=observed efficacy of active ingredient B at the same concentration as used in the mixture.

[5] = test system: ELEIN (Eleusine indica (L.) Gaertn., goosegrass); experiment: Example III postemergence foliar-applied mixtures, row crop weeds (corn, soybean), greenhouse: ELEIN
Description: as §1, with “a soil matrix prepared by mixing a loam or sandy loam soil (e.g., 43 percent silt, 19 percent clay, and 38 percent sand, with” for “Sun Gro Metro-Mix® 360 planting mixture, which typically has”, “about 8.1” for “6.0 to 6.8”, “1.5 percent) and calcareous grit in an 80 to 20 ratio. The soil matrix was contained” for “30 percent,”, “square centimters (cm^2) and a volume of 560 cubic” for “square”, “(cm^3).” for “(cm^2).”
as §8, §9, §3, §10, §5, §11, §12

[6] = test system: AMARE (Amaranthus retroflexus L., redroot pigweed); experiment: Example IV postemergence foliar-applied mixtures, general weed control, greenhouse: AMARE (Table 17, species inferred from b27)
Description: as §1, §2, §3, §4, §5, §6, §7

[7] = glufosinate ammonium alone, 28.25 gae/ha
[8] = glufosinate ammonium alone, 56.5 gae/ha
[9] = Glufosinate ammonium salt 225 gai/ha alone
[10] = Compound A Benzyl Ester 2 gae/ha alone, 18 DAA
[11] = Compound A Benzyl Ester 4 gae/ha alone, 18 DAA
[12] = Compound A Benzyl Ester 8 gae/ha alone, 18 DAA
[13] = Compound A Benzyl Ester 16 gae/ha alone, 18 DAA
[14] = Compound A Benzyl Ester 32 gae/ha alone, 18 DAA
[15] = Compound A Benzyl Ester alone, 2 gae/ha
[16] = Compound A Benzyl Ester alone, 4 gae/ha
[17] = Compound A Benzyl Ester 2 gae/ha alone
[18] = Compound A Benzyl Ester 4 gae/ha alone
[19] = Compound A Benzyl Ester 8 gae/ha alone
[20] = Compound A Benzyl Ester 16 gae/ha alone
[21] = Compound A Benzyl Ester 32 gae/ha alone
[22] = Compound A Acid alone, 7.5 gae/ha
[23] = Compound A Acid alone, 15 gae/ha

## CP(=O)(O)CCC(N)C(=O)O (stereo not shown) [Glufosinate ammonium salt, 2-amino-4-(hydroxymethylphosphinyl)butanoic acid monoammonium salt, reference compound]
[1]; Glufosinate ammonium salt 225 gai/ha alone, 18 DAA
  Visual Weed Control (%) - 18 DAA DIGSA Obs: 25%
[2]; [7]
  Visual Weed Control (%) - 16 DAA AVEFA Obs: 0%
[2]; [8]
  Visual Weed Control (%) - 16 DAA AVEFA Obs: 0%
[3]; Glufosinate ammonium salt 450 gai/ha alone, 18 DAA
  VisualWeed Control (%) - 18 DAA SETFA Obs: 60%
[4]; Glufosinate ammonium salt 112.5 gai/ha alone
  Visual Weed Control (%) - 18 DAA IPOHE Obs: 10%
[4]; [9]
  Visual Weed Control (%) - 18 DAA IPOHE Obs: 20%
[4]; Glufosinate ammonium salt 450 gai/ha alone
  Visual Weed Control (%) - 18 DAA IPOHE Obs: 50%
[5]; [7]
  Visual Weed Control (%) - 16 DAA ELEIN Obs: 0%
[5]; [8]
  Visual Weed Control (%) - 16 DAA ELEIN Obs: 0%
[5]; glufosinate ammonium alone, 113 gae/ha
  Visual Weed Control (%) - 16 DAA ELEIN Obs: 10%
[6]; [9]
  Visual Weed Control (%) - 18 DAA AMARE Obs: 50%

## COc1c(Cl)ccc(-c2nc(C(=O)OCc3ccccc3)c(Cl)c(N)c2F)c1F [Compound A Benzyl Ester]
[1]; [10]
  Visual Weed Control (%) - 18 DAA DIGSA Obs: 0%
[1]; [11]
  Visual Weed Control (%) - 18 DAA DIGSA Obs: 0%
[1]; [12]
  Visual Weed Control (%) - 18 DAA DIGSA Obs: 0%
[1]; [13]
  Visual Weed Control (%) - 18 DAA DIGSA Obs: 0%
[1]; [14]
  Visual Weed Control (%) - 18 DAA DIGSA Obs: 30%
[1]; [15]
  Visual Weed Control (%) - 18 DAA DIGSA Obs: 0%
[1]; [16]
  Visual Weed Control (%) - 18 DAA DIGSA Obs: 0%
[1]; Compound A Benzyl Ester alone, 8 gae/ha
  Visual Weed Control (%) - 18 DAA DIGSA Obs: 0%
[1]; Compound A Benzyl Ester alone, 16 gae/ha
  Visual Weed Control (%) - 18 DAA DIGSA Obs: 0%
[1]; Compound A Benzyl Ester alone, 32 gae/ha
  Visual Weed Control (%) - 18 DAA DIGSA Obs: 30%
[3]; [10]
  VisualWeed Control (%) - 18 DAA SETFA Obs: 40%
[3]; [11]
  VisualWeed Control (%) - 18 DAA SETFA Obs: 40%
[3]; [12]
  VisualWeed Control (%) - 18 DAA SETFA Obs: 75%
[3]; [13]
  VisualWeed Control (%) - 18 DAA SETFA Obs: 85%
[3]; [14]
  VisualWeed Control (%) - 18 DAA SETFA Obs: 90%
[3]; [15]
  VisualWeed Control (%) - 18 DAA SETFA Obs: 40%
[3]; [16]
  VisualWeed Control (%) - 18 DAA SETFA Obs: 40%
[4]; [17]
  Visual Weed Control (%) - 18 DAA IPOHE Obs: 15%
[4]; [18]
  Visual Weed Control (%) - 18 DAA IPOHE Obs: 25%
[4]; [19]
  Visual Weed Control (%) - 18 DAA IPOHE Obs: 25%
[4]; [20]
  Visual Weed Control (%) - 18 DAA IPOHE Obs: 35%
[4]; [21]
  Visual Weed Control (%) - 18 DAA IPOHE Obs: 45%
[6]; [17]
  Visual Weed Control (%) - 18 DAA AMARE Obs: 50%
[6]; [18]
  Visual Weed Control (%) - 18 DAA AMARE Obs: 60%
[6]; [19]
  Visual Weed Control (%) - 18 DAA AMARE Obs: 85%
[6]; [20]
  Visual Weed Control (%) - 18 DAA AMARE Obs: 85%
[6]; [21]
  Visual Weed Control (%) - 18 DAA AMARE Obs: 100%

## COc1c(Cl)ccc(-c2nc(C(=O)O)c(Cl)c(N)c2F)c1F [Compound A Acid, 4-amino-3-chloro-6-(4-chloro-2-fluoro-3-methoxyphenyl)-5-fluoropyridine-2-carboxylic acid]
[2]; Compound A Acid alone, 3.75 gae/ha
  Visual Weed Control (%) - 16 DAA AVEFA Obs: 0%
[2]; [22]
  Visual Weed Control (%) - 16 DAA AVEFA Obs: 0%
[2]; [23]
  Visual Weed Control (%) - 16 DAA AVEFA Obs: 10%
[5]; [22]
  Visual Weed Control (%) - 16 DAA ELEIN Obs: 10%
[5]; [23]
  Visual Weed Control (%) - 16 DAA ELEIN Obs: 10%
